Data as given in US20230085307A1, “PYRIDAZINONE COMPOUND AND HERBICIDE” (NISSAN CHEMICAL CORPORATION, priority 2019, published 2023).

Experiments:
velvetleaf = assay: Test Example 4: herbicidal effect by soil treatment (Table 19, symbol M); assay type: in vivo, velvetleaf (Abutilon theophrasti); details: amount of applied herbicide 320 g/ha
Method in brief: (§1)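 Applied as a water-diluted emulsion, the compound was sprayed onto soil covering newly sown seeds. Evaluation came three weeks after application, in a greenhouse held at 25° C. to 30° C.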

persian speedwell [1] = assay: Test Example 4: herbicidal effect by soil treatment (Table 19, symbol R); assay type: in vivo, Persian speedwell (Veronica persica); details: amount of applied herbicide 320 g/ha
Method in brief: as §1

barnyard grass [2] = assay: Test Example 4: herbicidal effect by soil treatment (Table 19, symbol H); assay type: in vivo, barnyard grass (Echinochloa crus-galli); details: amount of applied herbicide 320 g/ha
Method in brief: as §1

windgrass [3] = assay: Test Example 4: herbicidal effect by soil treatment (Table 19, symbol L); assay type: in vivo, windgrass (Apera spica-venti); details: amount of applied herbicide 320 g/ha
Method in brief: as §1

green foxtail = assay: Test Example 5: herbicidal effect by foliage application, plastic box (Table 20, symbol G); assay type: in vivo, green foxtail (Setaria viridis); details: foliage application; for G: green foxtail, herbicidal effect grade: 320 g/ha, three weeks after application
Method in brief: (§2)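 Sow seeds spot-wise in sterilized diluvial soil; cover with ~1.5 cm soil. Grow 14 days in greenhouse, 25° C. to 30° C. Spray foliage with emulsion diluted to predetermined amount. Rate effect after 3 weeks.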

oval-leafed pondweed = assay: Test Example 2: herbicidal activity, application during weed generation under submerged conditions (Table 17, symbol C); assay type: in vivo, oval-leafed pondweed (Monochoria vaginalis); details: AAH 320 g/ha; application during weed generation, submerged conditions
Method in brief: (§3)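 Wagner pot, alluvial soil, 4 cm flood; mixed sowing of all species; greenhouse 25° C.–30° C. Emulsifiable formulation, water-diluted to predetermined dose, applied to paddy water at 1–2 leaf stage. Effect rated at 3 wk using the earlier test's scoring criteria.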

chickweed [4] = assay: Test Example 5: herbicidal effect by foliage application, plastic box (Table 20, symbol P); assay type: in vivo, common chickweed (Stellaria media); details: foliage application; for P: chickweed, herbicidal effect grade: 320 g/ha, three weeks after application
Method in brief: as §2

late watergrass [5] = assay: Test Example 1: herbicidal activity, application before weed generation under submerged conditions (Table 16, symbol A); assay type: in vivo, late watergrass (Echinochloa oryzicola); details: amount of applied herbicide 320 g/ha
Method in brief: (§4)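 Submerged Wagner pots (alluvial soil, 4 cm water) sown with weed seeds and planted with 2.5-leaf rice seedlings; emulsifiable concentrate diluted in water applied to water surface on sowing day. Held in greenhouse at 25-30 °C; injury scored 0-5 by herbicidal rate after three weeks.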

lambsquarters = assay: Test Example 4: herbicidal effect by soil treatment (Table 19, symbol O); assay type: in vivo, lambsquarters (Chenopodium album); details: amount of applied herbicide 320 g/ha
Method in brief: as §1

windgrass [6] = assay: Test Example 5: herbicidal effect by foliage application, plastic box (Table 20, symbol L); assay type: in vivo, windgrass (Apera spica-venti); details: foliage application; for L: windgrass, herbicidal effect grade: 320 g/ha, three weeks after application
Method in brief: as §2

persian speedwell [7] = assay: Test Example 5: herbicidal effect by foliage application, plastic box (Table 20, symbol R); assay type: in vivo, Persian speedwell (Veronica persica); details: foliage application; for R: persian speedwell, herbicidal effect grade: 320 g/ha, three weeks after application
Method in brief: as §2

late watergrass [8] = assay: Test Example 2: herbicidal activity, application during weed generation under submerged conditions (Table 17, symbol A); assay type: in vivo, late watergrass (Echinochloa oryzicola); details: AAH 320 g/ha; application during weed generation, submerged conditions
Method in brief: as §3

Japanese bulrush = assay: Test Example 1: herbicidal activity, application before weed generation under submerged conditions (Table 16, symbol B); assay type: in vivo, Japanese bulrush (Schoenoplectus juncoides); details: amount of applied herbicide 320 g/ha
Method in brief: as §4

chickweed [9] = assay: Test Example 4: herbicidal effect by soil treatment (Table 19, symbol P); assay type: in vivo, common chickweed (Stellaria media); details: amount of applied herbicide 320 g/ha
Method in brief: as §1

redroot pigweed = assay: Test Example 5: herbicidal effect by foliage application, plastic box (Table 20, symbol N); assay type: in vivo, redroot pigweed (Amaranthus retroflexus); details: foliage application; for N: redroot pigweed, herbicidal effect grade: 320 g/ha, three weeks after application
Method in brief: as §2

Italian ryegrass = assay: Test Example 4: herbicidal effect by soil treatment (Table 19, symbol K); assay type: in vivo, Italian ryegrass (Lolium multiflorum); details: amount of applied herbicide 320 g/ha
Method in brief: as §1

barnyard grass [10] = assay: Test Example 3: herbicidal effect by foliage application, Wagner pot (Table 18, symbol H); assay type: in vivo, barnyard grass (Echinochloa crus-galli); details: for herbicidal effect on barnyard grass (H): 320 g/ha; for herbicidal effect on H: barnyard grass: amount of applied herbicide 320 g/ha
Method in brief: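 Plants were sown in alluvial soil held under 0.1–0.5 cm standing water and grown 14 days in a greenhouse at 25–30 °C. An emulsifiable formulation, water-diluted to the set dose, was then sprayed onto the foliage, and effects were scored three weeks later using previously defined criteria.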

[11] = AAH 320 g/ha, evaluated three weeks after application

SMILES | M: velvetleaf, herbicidal effect grade (velvetleaf) | R: persian speedwell, herbicidal effect grade (persian speedwell [1]) | H: barnyard grass, herbicidal effect grade (barnyard grass [2]) | L: windgrass, herbicidal effect grade (windgrass [3]) | G: green foxtail, herbicidal effect grade (green foxtail) | herbicidal effect rating, C: oval-leafed pondweed (oval-leafed pondweed) | P: chickweed, herbicidal effect grade (chickweed [4]) | Herbicidal effect, A: late watergrass (late watergrass [5]) | O: lambsquarters, herbicidal effect grade (lambsquarters) | L: windgrass, herbicidal effect grade (windgrass [6]) | R: persian speedwell, herbicidal effect grade (persian speedwell [7]) | herbicidal effect rating, A: late watergrass (late watergrass [8]) | Herbicidal effect, B: Japanese bulrush (Japanese bulrush) | P: chickweed, herbicidal effect grade (chickweed [9]) | N: redroot pigweed, herbicidal effect grade (redroot pigweed) | K: Italian ryegrass, herbicidal effect grade (Italian ryegrass) | herbicidal effect on barnyard grass (H) (barnyard grass [10]) | herbicidal effect, M: velvetleaf (velvetleaf) | herbicidal effect, R: persian speedwell (persian speedwell [1]) | herbicidal effect, H: barnyard grass (barnyard grass [2]) | other results
CCCCOc1ccc2c(-c3c(O)c(C)nn(C)c3=O)c(-c3ccccc3OC)sc2c1 [3-105] | 0 (Herbicidal rate of 5% or less (almost no effect)) | 5 (Herbicidal rate of 90% or more (almost completely withered)) | 0 (Herbicidal rate of 5% or less (almost no effect)) | 4 (Herbicidal rate of 70% or more and less than 90%) | 5 (Herbicidal rate of 90% or more (almost completely withered)) | 4 (Herbicidal rate of 70% or more and less than 90%) | 5 (Herbicidal rate of 90% or more (almost completely withered)) | 5 (Herbicidal rate of 90% or more (almost completely withered)) | 3 (Herbicidal rate of 40% or more and less than 70%) | 5 (Herbicidal rate of 90% or more (almost completely withered)) | 5 (Herbicidal rate of 90% or more (almost completely withered)) | 3 (Herbicidal rate of 40% or more and less than 70%) | 5 (Herbicidal rate of 90% or more (almost completely withered)) | 3 (Herbicidal rate of 40% or more and less than 70%) | 5 (Herbicidal rate of 90% or more (almost completely withered)) | 5 (Herbicidal rate of 90% or more (almost completely withered)) | 5 (Herbicidal rate of 90% or more (almost completely withered)) | – | – | – | –
COc1ccccc1-c1sc2cc(OCC3CC3)ccc2c1-c1c(O)c(C)nn(C)c1=O [3-129] | 0 (Herbicidal rate of 5% or less (almost no effect)) | 4 (Herbicidal rate of 70% or more and less than 90%) | 4 (Herbicidal rate of 70% or more and less than 90%) | 5 (Herbicidal rate of 90% or more (almost completely withered)) | 5 (Herbicidal rate of 90% or more (almost completely withered)) | 3 (Herbicidal rate of 40% or more and less than 70%) | 5 (Herbicidal rate of 90% or more (almost completely withered)) | 5 (Herbicidal rate of 90% or more (almost completely withered)) | 5 (Herbicidal rate of 90% or more (almost completely withered)) | 5 (Herbicidal rate of 90% or more (almost completely withered)) | 5 (Herbicidal rate of 90% or more (almost completely withered)) | 3 (Herbicidal rate of 40% or more and less than 70%) | 5 (Herbicidal rate of 90% or more (almost completely withered)) | 3 (Herbicidal rate of 40% or more and less than 70%) | 5 (Herbicidal rate of 90% or more (almost completely withered)) | 5 (Herbicidal rate of 90% or more (almost completely withered)) | 5 (Herbicidal rate of 90% or more (almost completely withered)) | – | – | – | –
CCCC(=O)Oc1c(C)nn(C)c(=O)c1-c1c(-c2ccc(Cl)s2)sc2ccc(F)cc12 [2-391] | – | – | – | – | – | 5 (Herbicidal rate of 90% or more (almost completely withered)) | – | 5 (Herbicidal rate of 90% or more (almost completely withered)) | – | – | – | 3 (Herbicidal rate of 40% or more and less than 70%) | 4 (Herbicidal rate of 70% or more and less than 90%) | – | – | – | – | 3 (Herbicidal rate of 40% or more and less than 70%) | 3 (Herbicidal rate of 40% or more and less than 70%) | 4 (Herbicidal rate of 70% or more and less than 90%) | herbicidal effect, L: windgrass (windgrass [3]): 3 (Herbicidal rate of 40% or more and less than 70%); G: green foxtail, herbicidal effect (criteria 0-5) (green foxtail; [11]): 5 (Herbicidal rate of 90% or more (almost completely withered)); P: chickweed, herbicidal effect (criteria 0-5) (chickweed [4]; [11]): 5 (Herbicidal rate of 90% or more (almost completely withered)); herbicidal effect, O: lambsquarters (lambsquarters): 4 (Herbicidal rate of 70% or more and less than 90%); L: windgrass, herbicidal effect (criteria 0-5) (windgrass [6]; [11]): 4 (Herbicidal rate of 70% or more and less than 90%); R: persian speedwell, herbicidal effect (criteria 0-5) (persian speedwell [7]; [11]): 5 (Herbicidal rate of 90% or more (almost completely withered)); herbicidal effect, P: chickweed (chickweed [9]): 4 (Herbicidal rate of 70% or more and less than 90%); N: redroot pigweed, herbicidal effect (criteria 0-5) (redroot pigweed; [11]): 5 (Herbicidal rate of 90% or more (almost completely withered)); herbicidal effect, K: Italian ryegrass (Italian ryegrass): 5 (Herbicidal rate of 90% or more (almost completely withered)); herbicidal effect on H: barnyard grass (barnyard grass [10]): 5 (Herbicidal rate of 90% or more (almost completely withered))
CCCC(=O)Oc1c(C)nn(C)c(=O)c1-c1c(-c2ccc3c(c2)OCCO3)sc2cc(F)ccc12 [3-014] | – | – | – | – | 3 (Herbicidal rate of 40% or more and less than 70%) | 5 (Herbicidal rate of 90% or more (almost completely withered)) | 5 (Herbicidal rate of 90% or more (almost completely withered)) | 5 (Herbicidal rate of 90% or more (almost completely withered)) | – | 0 (Herbicidal rate of 5% or less (almost no effect)) | 5 (Herbicidal rate of 90% or more (almost completely withered)) | 3 (Herbicidal rate of 40% or more and less than 70%) | 3 (Herbicidal rate of 40% or more and less than 70%) | – | 5 (Herbicidal rate of 90% or more (almost completely withered)) | – | – | 0 (Herbicidal rate of 5% or less (almost no effect)) | 5 (Herbicidal rate of 90% or more (almost completely withered)) | 0 (Herbicidal rate of 5% or less (almost no effect)) | herbicidal effect, L: windgrass (windgrass [3]): 0 (Herbicidal rate of 5% or less (almost no effect)); herbicidal effect, O: lambsquarters (lambsquarters): 4 (Herbicidal rate of 70% or more and less than 90%); herbicidal effect, P: chickweed (chickweed [9]): 4 (Herbicidal rate of 70% or more and less than 90%); herbicidal effect, K: Italian ryegrass (Italian ryegrass): 0 (Herbicidal rate of 5% or less (almost no effect)); herbicidal effect on H: barnyard grass (barnyard grass [10]): 5 (Herbicidal rate of 90% or more (almost completely withered))
